Article PMC6496074, “The Evolution of Azole Resistance in Candida albicans Sterol 14α-Demethylase (CYP51) through Incremental Amino Acid Substitutions” (Antimicrobial Agents and Chemotherapy, 2019)
Values joined by “and” are separate entries in the source; they are usually repeats but may differ in a detail not shown here. Equal entries are not always repeated.

Experiments:
[1] = target: CaCYP51 proteins with amino acid substitutions; assay: CYP51 reconstitution assay, span over several CaCYP51 proteins; assay type: biochemical, Candida albicans; conditions: none of the substituted CaCYP51 proteins greater than this
Method: (§1) Azole antifungal agents were added in 2.5 μl dimethyl sulfoxide, followed by 10 min of incubation at 37°C prior to assay initiation with 4 mM β-NADPH-Na4. The samples were then shaken for 15 min at 37°C. Sterol metabolites were recovered by extraction with ethyl acetate, followed by derivatization with 0.1 ml N,O-bis(trimethylsilyl)trifluoroacetamide (BSTFA)–trimethylchlorosilane (TMCS) (99:1) and 0.3 ml anhydrous pyridine (2 h at 80°C), prior to analysis by gas chromatography-mass spectrometry (GC-MS) ([52]). IC50 determinations were performed in duplicate.

CaCYP51 Y132F = target: T1, CaCYP51 Y132F (Candida albicans, UniProt P10613, Y132F); assay: CYP51 reconstitution assay; assay type: biochemical
T1 construct: made in house; host or cells: E. coli DH5α (pCWori+)
Method: as §1

CaCYP51 G448E = target: T2, CaCYP51 G448E (Candida albicans, UniProt P10613, G448E); assay: CYP51 reconstitution assay; assay type: biochemical
T2 construct: made in house; host or cells: E. coli DH5α (pCWori+)
Method: as §1

CaCYP51 F449Y = target: T3, CaCYP51 F449Y (Candida albicans, UniProt P10613, F449Y); assay: CYP51 reconstitution assay; assay type: biochemical
T3 construct: made in house; host or cells: E. coli DH5α (pCWori+)
T3 sequence (P10613 whole entry, looked up, stated change not applied): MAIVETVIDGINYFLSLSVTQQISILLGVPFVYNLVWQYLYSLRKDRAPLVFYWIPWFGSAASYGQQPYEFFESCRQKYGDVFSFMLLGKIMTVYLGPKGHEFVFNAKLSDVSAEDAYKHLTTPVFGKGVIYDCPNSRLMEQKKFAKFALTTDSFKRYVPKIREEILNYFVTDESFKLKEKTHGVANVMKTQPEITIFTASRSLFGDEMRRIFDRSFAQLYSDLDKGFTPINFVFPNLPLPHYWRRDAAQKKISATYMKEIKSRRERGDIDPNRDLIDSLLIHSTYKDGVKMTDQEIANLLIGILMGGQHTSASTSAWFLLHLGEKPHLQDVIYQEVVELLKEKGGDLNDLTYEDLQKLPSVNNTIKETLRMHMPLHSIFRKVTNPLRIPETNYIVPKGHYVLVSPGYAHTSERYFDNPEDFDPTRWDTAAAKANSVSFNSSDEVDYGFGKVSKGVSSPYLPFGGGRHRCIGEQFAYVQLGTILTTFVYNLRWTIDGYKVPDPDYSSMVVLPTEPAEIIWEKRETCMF
Method: as §1

CaCYP51 V437I = target: T4, CaCYP51 V437I (Candida albicans, UniProt P10613, V437I); assay: CYP51 reconstitution assay; assay type: biochemical
T4 construct: made in house; host or cells: E. coli DH5α (pCWori+)
T4 sequence (P10613 whole entry, looked up, stated change not applied): as above
Method: as §1

CaCYP51 Wild type = target: T5, CaCYP51 Wild type (Candida albicans, UniProt P10613); assay: CYP51 reconstitution assay; assay type: biochemical; conditions: Wild type
T5 construct: made in house; host or cells: E. coli DH5α (pCWori+)
T5 sequence (P10613 whole entry, looked up, natural form): as the sequence (P10613 whole entry, looked up, stated change not applied) above
Method: as §1

CaCYP51 S405F = target: T6, CaCYP51 S405F (Candida albicans, UniProt P10613, S405F); assay: CYP51 reconstitution assay; assay type: biochemical
T6 construct: made in house; host or cells: E. coli DH5α (pCWori+)
T6 sequence (P10613 whole entry, looked up, stated change not applied): as above
Method: as §1

CaCYP51 I471T = target: T7, CaCYP51 I471T (Candida albicans, UniProt P10613, I471T); assay: CYP51 reconstitution assay; assay type: biochemical
T7 construct: made in house; host or cells: E. coli DH5α (pCWori+)
Method: as §1

CaCYP51 Y257H = target: T8, CaCYP51 Y257H (Candida albicans, UniProt P10613, Y257H); assay: CYP51 reconstitution assay; assay type: biochemical
T8 construct: made in house; host or cells: E. coli DH5α (pCWori+)
T8 sequence (P10613 whole entry, looked up, stated change not applied): as above
Method: as §1

CaCYP51 D278N = target: T9, CaCYP51 D278N (Candida albicans, UniProt P10613, D278N); assay: CYP51 reconstitution assay; assay type: biochemical
T9 construct: made in house; host or cells: E. coli DH5α (pCWori+)
T9 sequence (P10613 whole entry, looked up, stated change not applied): as above
Method: as §1

CaCYP51 D278N+G464S = target: T10, CaCYP51 D278N+G464S (Candida albicans, UniProt P10613, D278N/G464S); assay: CYP51 reconstitution assay; assay type: biochemical
T10 construct: made in house; host or cells: E. coli DH5α (pCWori+)
Method: as §1

CaCYP51 G464S = target: T11, CaCYP51 G464S (Candida albicans, UniProt P10613, G464S); assay: CYP51 reconstitution assay; assay type: biochemical
T11 construct: made in house; host or cells: E. coli DH5α (pCWori+)
T11 sequence (P10613 whole entry, looked up, stated change not applied): as above
Method: as §1

CaCYP51 R467K = target: T12, CaCYP51 R467K (Candida albicans, UniProt P10613, R467K); assay: CYP51 reconstitution assay; assay type: biochemical
T12 construct: made in house; host or cells: E. coli DH5α (pCWori+)
T12 sequence (P10613 whole entry, looked up, stated change not applied): as above
Method: as §1

CaCYP51 G450E = target: T13, CaCYP51 G450E (Candida albicans, UniProt P10613, G450E); assay: CYP51 reconstitution assay; assay type: biochemical
T13 construct: made in house; host or cells: E. coli DH5α (pCWori+)
Method: as §1

CaCYP51 Y447H = target: T14, CaCYP51 Y447H (Candida albicans, UniProt P10613, Y447H); assay: CYP51 reconstitution assay; assay type: biochemical
T14 construct: made in house; host or cells: E. coli DH5α (pCWori+)
T14 sequence (P10613 whole entry, looked up, stated change not applied): as above
Method: as §1

CaCYP51 F126V = target: T15, CaCYP51 F126V (Candida albicans, UniProt P10613, F126V); assay: CYP51 reconstitution assay; assay type: biochemical
T15 construct: made in house; host or cells: E. coli DH5α (pCWori+)
Method: as §1

CaCYP51 Y132F+K143R = target: T16, CaCYP51 Y132F+K143R (Candida albicans, UniProt P10613, K143R/Y132F); assay: Azole ligand binding (type II difference spectra)
T16 construct: made in house; host or cells: E. coli DH5α (pCWori+)
Method: Studies of azole antifungal binding to 4 μM CaCYP51 proteins were performed as previously described ([53]) using quartz split cuvettes with a 4.5-mm light path. […] Azole antifungals were progressively titrated against the CaCYP51 proteins in 0.1 M Tris-HCl (pH 8.1) and 25% glycerol at 22°C, with equivalent volumes of dimethyl sulfoxide also being added to the CYP51-containing compartment of the reference cuvette. The absorbance difference spectra between 500 and 350 nm were determined after each incremental addition of azole, with binding saturation curves constructed from the change in the peak and trough absorbance (ΔApeak-trough) against the azole concentration. The dissociation constant (Kd) of the enzyme-azole complex for each azole was determined by nonlinear regression (Levenberg-Marquardt algorithm) using a rearrangement of the Morrison equation for tight ligand binding ([54], [55]). Tight binding is normally observed when the Kd for a ligand is similar to or lower than the concentration of the enzyme present ([56]). Where ligand binding was weak, the Michaelis-Menten equation was used to fit the data. Each binding determination was performed in triplicate. The chemical structures of the azole antifungals used in this study are shown in Fig. S5 in the supplemental material.

[2] = 0.25 h, 4 μM triazole, % of activity without triazole, read-out: Residual CYP51 activity (%) ± SD

Q: Which results are given for `CCC(C)n1ncn(-c2ccc(N3CCN(c4ccc(OCC5COC(Cn6cncn6)(c6ccc(Cl)cc6Cl)O5)cc4)CC3)cc2)c1=O` (centres unmarked) [Itraconazole, itraconazole]?
A: IC50 relative to that of the wild-type enzyme [1]: ≤ 1.6 fold; remaining activity at 4 µM (CaCYP51 Y132F; [2]): 0.19 ± 0.04%; IC50 (CaCYP51 Y132F; mean ± SD, duplicate): 0.309 ± 0.003 µM; remaining activity at 4 µM (CaCYP51 G448E; [2]): 1.75 ± 0.26%; IC50 (CaCYP51 G448E; mean ± SD, duplicate): 0.238 ± 0.013 µM; remaining activity at 4 µM (CaCYP51 F449Y; [2]): 0.84 ± 0.57%; IC50 (CaCYP51 F449Y; mean ± SD, duplicate): 0.222 ± 0.011 µM; remaining activity at 4 µM (CaCYP51 V437I; [2]): 0.13 ± 0.02%; IC50 (CaCYP51 V437I; mean ± SD, duplicate): 0.293 ± 0.022 µM; remaining activity at 4 µM (CaCYP51 Wild type; [2]): 0.03 ± 0.02%; IC50 (CaCYP51 Wild type; mean ± SD, duplicate, read-out: IC50): 0.39 µM and 0.389 µM; remaining activity at 4 µM (CaCYP51 S405F; [2]): 2.73 ± 0.13%; IC50 (CaCYP51 S405F; mean ± SD, duplicate): 0.35 ± 0.019 µM; remaining activity at 4 µM (CaCYP51 I471T; [2]): 1.21 ± 0.01%; IC50 (CaCYP51 I471T; mean ± SD, duplicate): 0.218 ± 0.002 µM; remaining activity at 4 µM (CaCYP51 Y257H; [2]): 1.37 ± 0.28%; IC50 (CaCYP51 Y257H; mean ± SD, duplicate): 0.336 ± 0.014 µM; remaining activity at 4 µM (CaCYP51 D278N; [2]): 3 ± 0.19%; IC50 (CaCYP51 D278N; mean ± SD, duplicate): 0.545 ± 0.044 µM; remaining activity at 4 µM (CaCYP51 D278N+G464S; [2]): 3.19 ± 0.46%; IC50 (CaCYP51 D278N+G464S; mean ± SD, duplicate): 0.403 ± 0.011 µM; remaining activity at 4 µM (CaCYP51 G464S; [2]): 0.54 ± 0.11%; IC50 (CaCYP51 G464S; mean ± SD, duplicate): 0.282 ± 0.006 µM; remaining activity at 4 µM (CaCYP51 R467K; [2]): 0.45 ± 0.17%; IC50 (CaCYP51 R467K; mean ± SD, duplicate): 0.235 ± 0.018 µM; remaining activity at 4 µM (CaCYP51 G450E; [2]): 7.66 ± 0.54%; IC50 (CaCYP51 G450E; mean ± SD, duplicate): 0.458 ± 0.07 µM; remaining activity at 4 µM (CaCYP51 Y447H; [2]): 1.45 ± 0.06%; IC50 (CaCYP51 Y447H; mean ± SD, duplicate): 0.299 ± 0.039 µM; remaining activity at 4 µM (CaCYP51 F126V; [2]): 0.22 ± 0.05%; IC50 (CaCYP51 F126V; mean ± SD, duplicate): 0.206 ± 0.009 µM; Kd (CaCYP51 Y132F+K143R): 0.127 ± 0.033 µM
